In the NIST ThermoML archive (doi:10.1016/j.jct.2006.05.004) one finds mass density and refractive index data, which are given here for 3 molecules.

As a reminder, the mass density is mass per unit of volume. For orientation: refractive index means a measure of how strongly the sample bends light.

± gives the expanded uncertainty stated by the source.

For data set [1] the following is noted: 298.15 K; 101.33 kPa; Liquid.
Data set [2] in a line: refractive index (Na D-line) (dimensionless). The conditions noted are these: 298.15 K; 101.33 kPa; Liquid; Standard Abbe refractometry.

Take `CCCCC(=O)OC` [methyl pentanoate]: in data set [1], the mass density was 884.59 ± 1 kg/m3. Besides, the refractive index in data set [2] was determined as 1.395 ± 0.0008.

As to `CCC(=O)OC` [methyl propanoate], the mass density in data set [1] is 910.18 ± 0.9 kg/m3. The refractive index in data set [2] is on record as 1.374 ± 0.0008.

In the case of `COC=O` [methyl methanoate], the mass density in data set [1] was determined as 966.83 ± 0.7 kg/m3. In addition, the refractive index in data set [2] came out at 1.3415 ± 0.0008.
